The numbers were not newly measured in PMC5598522 (Toxicology Reports, 2014), which cites them from elsewhere.

Each structure is given as a SMILES string.

For data set [1] the following is noted: cited from earlier work.
The next data set relates to rats. To be noted: cited from earlier work.
The conditions of data set [2]: Wistar rats; cited from earlier work.

As for `COC(=O)[C@H](c1ccccc1Cl)N1CCc2sccc2C1` [Clopidogrel], in data set [1], the “Tumor incidences in 2 year carcinogenicity bioassay” value is “did not alter tumor incidences”.

`CC(C)C[C@H]1C(=O)N2CCC[C@H]2[C@]2(O)O[C@](NC(=O)[C@@H]3C=C4c5cccc6[nH]c(Br)c(c56)C[C@H]4N(C)C3)(C(C)C)C(=O)N12` [bromocriptine]: in the data set on rats, the “Uterine and mammary tumors” value is “increases uterine and decreases mammary tumors only in rats”. For the same compound, the Weight gain result in data set [2] is recorded as “inhibited weight gain”.
